{"source": "patent US20240381872A1", "about": "“SUBSTITUTED 2,3-DIHYDRO[1,3]THIAZOLO[4,5-B]PYRIDINES, SALTS THEREOF AND THEIR USE AS HERBICIDALLY ACTIVE SUBSTANCES” (BAYER AKTIENGESELLSCHAFT, priority 2021, published 2024)", "format_in_all_cases": "in vivo", "key": {"Brassica napus (BRSNW)": {"system": "Brassica napus (BRSNW)", "assay": "Post-emergence effects on crop plants, section F (Table F5)", "conditions": "Brassica napus, 504 h, application rate 80 g/ha, read-out: post-emergence activity against BRSNW in %", "outline": "(§1)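 After sowing in sandy loam and 2–3 weeks' greenhouse growth, single-leaf plants received foliar sprays (WP or EC, 0.5% additive, 600 l/ha water, ≤320 g/ha). Around 3 weeks on, herbicidal effect was estimated by eye, 0% meaning like controls and 100% meaning plants died.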"}, "Stellaria media (STEME)": {"system": "Stellaria media (STEME)", "assay": "Herbicidal pre-emergence action, section A (Table A9)", "conditions": "for pest or weed control at 320 g/ha: Stellaria media, 504 h, read-out: pre-emergence activity against STEME in %", "outline": "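Double sowings in sandy loam; soil-surface spray of WP/EC aqueous preparations, 0.5% additive, 600 l/ha water. Greenhouse, optimum conditions. Visual % damage at ~3 wk vs untreated (100% = dead, 0% = control-like).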"}, "[1]": {"system": "Echinochloa crus-galli (ECHCG)", "assay": "Herbicidal post-emergence action, section B (Table B3)", "conditions": "rated visually after about 3 weeks; for pest or weed control at 1280 g/ha: Echinochloa crus-galli, 504 h, read-out: post-emergence activity against ECHCG in %", "outline": "(§2)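 Percent effect, judged by eye against untreated controls (0% = like control, 100% = plants dead), was recorded about 3 weeks after a foliar spray. The spray, at 600 liters per hectare with 0.5% additive, was applied to one-leaf-stage plants grown in sandy loam.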"}, "[2]": {"system": "Triticum aestivum (TRZAS)", "assay": "Pre-emergence effects on crop plants, section D (Table D2)", "conditions": "application rate 80 g/ha; visual grading after ca. 3 weeks", "outline": "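Pre-emergence soil-surface spray, 320 g/ha or below, 600 l water/ha + 0.5% additive; WP/EC formulations; sandy loam; greenhouse; visual % damage vs untreated at ~3 wk.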"}, "[3]": {"system": "Triticum aestivum (TRZAS)", "assay": "Post-emergence effects on crop plants, section F (Table F2)", "conditions": "for percent crop plant damage (wheat, post-emergence) at 320 g/ha / percent crop plant damage (wheat, post-emergence) at 80 g/ha: Triticum aestivum, 504 h, read-out: post-emergence activity against TRZAS in %; for percent crop plant damage (wheat, post-emergence) at 320 g/ha: application rate 320 g/ha; for post-emergence activity against TRZAS in %: crop plant damage; for post-emergence activity against TRZAS in % / percent crop plant damage (wheat, post-emergence) at 80 g/ha: application rate 80 g/ha", "outline": "as §1"}, "Veronica persica (VERPE)": {"system": "Veronica persica (VERPE)", "assay": "Herbicidal post-emergence action, section B (Table B10)", "conditions": "visual rating about 3 weeks after treatment vs untreated controls; for pest or weed control at 1280 g/ha: Veronica persica, post-emergence, 504 h, read-out: post-emergence activity against VERPE in %", "outline": "as §2"}, "[4]": {"system": "Matricaria inodora (MATIN)", "assay": "Herbicidal post-emergence action, section B (Table B6)", "conditions": "visual rating about 3 weeks after treatment vs untreated controls; for post-emergence activity against MATIN in %: application rate 1280 g/ha", "procedure": "(§3) Seeds of mono- and dicotyledonous weed plants were placed in plastic pots in sandy loam soil (doubly sown with in each case one species of mono- or dicotyledonous weed plants per pot), covered with soil and cultivated in a greenhouse under controlled growth conditions. 2 to 3 weeks after sowing, the test plants were treated at the one-leaf stage. The compounds of the invention, formulated in the form of wettable powders (WP) or as emulsion concentrates (EC), were applied onto the green parts of the plants as aqueous suspension or emulsion with addition of 0.5% additive at a water application rate of 600 liters per hectare (converted). After the test plants had been kept in the greenhouse under optimum growth conditions for about 3 weeks, the activity of the preparations was rated visually in comparison to untreated controls. For example, 100% activity=the plants have died, 0% activity=like control plants."}, "Setaria viridis (SETVI)": {"system": "Setaria viridis (SETVI)", "assay": "Herbicidal post-emergence action, section E (Table E8)", "conditions": "Setaria viridis, 504 h, application rate 320 g/ha, visual assessment ca. 3 weeks after spraying, read-out: post-emergence activity against SETVI in %", "description": "Seeds of mono- and dicotyledonous weed plants and crop plants were sown, in plastic or organic planting pots, in sandy loam, covered with soil and grown in a greenhouse under controlled growth conditions. 2 to 3 weeks after sowing, the test plants were sprayed in the single-leaf stage. The compounds according to the invention, formulated in form of wettable powders (WP) or as emulsifiable concentrates (EC), were sprayed onto the green plant parts as aqueous suspension or emulsion, with the addition of 0.5% of an additive, at an application rate of 600 l of water/ha (converted). The test plants were placed in the greenhouse for ca. 3 weeks under optimum growth conditions, and then the effect of the preparations was assessed visually in comparison with untreated controls (herbicidal effect in percent (%): 100% effect=plants have died off, 0% effect=as control plants)."}, "[5]": {"system": "Alopecurus myosuroides (ALOMY)", "assay": "Herbicidal post-emergence action, section B (Table B2)", "conditions": "Alopecurus myosuroides, post-emergence, 504 h; application rate 1280 g/ha; rated visually about 3 weeks after treatment vs untreated controls; 100% = plants have died, 0% = like control plants; read-out: post-emergence activity against ALOMY", "procedure": "as §3"}}}
{"molecule": "CC1(C(=O)N2CSc3cc(Br)c(-c4ccccc4Cl)nc32)CC(Cl)=NO1", "note": "(stereo not drawn) [Example I-141, [6-bromo-5-(2-chlorophenyl)[1,3]thiazolo[4,5-b]pyridin-3(2H)-yl](3-chloro-5-methyl-4,5-dihydro-1,2-oxazol-5-yl)methanone]", "values": [{"measurement": "crop plant damage (phytotoxicity) in % at 80 g/ha", "setting": "Brassica napus (BRSNW)", "value": 20, "unit": "%"}, {"measurement": "pest or weed control at 320 g/ha", "setting": "Stellaria media (STEME); application rate 320 g/ha", "value": 90, "unit": "%"}, {"measurement": "pest or weed control at 1280 g/ha", "setting": "[1]; application rate 1280 g/ha", "value": 90, "unit": "%"}, {"measurement": "pre-emergence activity against TRZAS in % (crop plant damage)", "setting": "[2]", "value": 0, "unit": "%"}, {"measurement": "percent crop plant damage (wheat, post-emergence) at 320 g/ha", "setting": "[3]", "value": 0, "unit": "%"}]}
{"molecule": "COC(=O)CCC(=O)N1CSc2cc(C)c(-c3ccccc3F)nc21", "note": "[Example I-010]", "values": [{"measurement": "pre-emergence activity against STEME in %", "setting": "Stellaria media (STEME); application rate 320 g/ha", "value": 100, "unit": "%"}, {"measurement": "post-emergence activity against VERPE in %", "setting": "Veronica persica (VERPE); application rate 320 g/ha", "value": 90, "unit": "%"}, {"measurement": "post-emergence activity against MATIN in %", "setting": "[4]", "value": 90, "unit": "%"}, {"measurement": "post-emergence activity against ECHCG in %", "setting": "[1]; application rate 1280 g/ha", "value": 90, "unit": "%"}]}
{"molecule": "CC1(C(=O)N2CSc3cc(Br)c(-c4ccccc4)nc32)CC(Cl)=NO1", "note": "(stereo not drawn) [Example I-139]", "values": [{"measurement": "pre-emergence activity against STEME in %", "setting": "Stellaria media (STEME); application rate 320 g/ha", "value": 90, "unit": "%"}, {"measurement": "post-emergence activity against VERPE in %", "setting": "Veronica persica (VERPE); application rate 1280 g/ha", "value": 90, "unit": "%"}, {"measurement": "post-emergence activity against ECHCG in %", "setting": "[1]; application rate 1280 g/ha", "value": 90, "unit": "%"}, {"measurement": "post-emergence activity against TRZAS in %", "setting": "[3]", "value": 0, "unit": "%"}]}
{"molecule": "CC(=O)N1CSc2cc(Br)c(-c3ccccc3Cl)nc21", "note": "[Example I-055, 1-[6-bromo-5-(2-chlorophenyl)[1,3]thiazolo[4,5-b]pyridin-3(2H)-yl]ethanone]", "values": [{"measurement": "crop plant damage (phytotoxicity) in % at 80 g/ha", "setting": "Brassica napus (BRSNW)", "value": 10, "unit": "%"}, {"measurement": "pest or weed control at 320 g/ha", "setting": "Stellaria media (STEME); application rate 320 g/ha", "value": 90, "unit": "%"}, {"measurement": "pest or weed control at 1280 g/ha", "setting": "[1]; application rate 1280 g/ha", "value": 90, "unit": "%"}, {"measurement": "pre-emergence activity against TRZAS in % (crop plant damage)", "setting": "[2]", "value": 0, "unit": "%"}, {"measurement": "percent crop plant damage (wheat, post-emergence) at 320 g/ha", "setting": "[3]", "value": 0, "unit": "%"}]}
{"molecule": "Cc1ccccc1-c1nc2c(cc1C)SCN2C(=O)C1(C)CC(Cl)=NO1", "note": "(stereo not drawn) [Example I-137]", "values": [{"measurement": "pre-emergence activity against STEME in %", "setting": "Stellaria media (STEME); application rate 1280 g/ha", "value": 100, "unit": "%"}, {"measurement": "post-emergence activity against VERPE in %", "setting": "Veronica persica (VERPE); application rate 1280 g/ha", "value": 90, "unit": "%"}, {"measurement": "post-emergence activity against MATIN in %", "setting": "[4]", "value": 90, "unit": "%"}, {"measurement": "post-emergence activity against ECHCG in %", "setting": "[1]; application rate 320 g/ha", "value": 90, "unit": "%"}, {"measurement": "pre-emergence activity against TRZAS in % (crop plant damage)", "setting": "[2]", "value": 0, "unit": "%"}, {"measurement": "post-emergence activity against TRZAS in %", "setting": "[3]", "value": 0, "unit": "%"}]}
{"molecule": "CCOCCS(=O)(=O)N1C[S+]([O-])c2cc(C)c(-c3ccccc3F)nc21", "note": "(stereo not drawn) [Example I-127]", "values": [{"measurement": "pest or weed control at 320 g/ha", "setting": "Stellaria media (STEME); application rate 320 g/ha", "value": 90, "unit": "%"}, {"measurement": "pest or weed control at 320 g/ha", "setting": "Setaria viridis (SETVI)", "value": 80, "unit": "%"}, {"measurement": "pest or weed control at 1280 g/ha", "setting": "Veronica persica (VERPE); application rate 1280 g/ha", "value": 90, "unit": "%"}, {"measurement": "pest or weed control at 320 g/ha", "setting": "[4]; Tripleurospermum inodorum, post-emergence, 504 h, application rate 320 g/ha, read-out: post-emergence activity against MATIN in %", "value": 90, "unit": "%"}, {"measurement": "pest or weed control at 1280 g/ha", "setting": "[1]; application rate 1280 g/ha", "value": 90, "unit": "%"}, {"measurement": "pre-emergence activity against TRZAS in % (crop plant damage)", "setting": "[2]", "value": 20, "unit": "%"}, {"measurement": "percent crop plant damage (wheat, post-emergence) at 80 g/ha", "setting": "[3]", "value": 0, "unit": "%"}]}
{"molecule": "Cc1cc2c(nc1-c1ccccc1Cl)NCS2", "note": "[Example I-049, 5-(2-chlorophenyl)-6-methyl-2,3-dihydro[1,3]thiazolo[4,5-b]pyridine]", "values": [{"measurement": "pest or weed control at 320 g/ha", "setting": "Setaria viridis (SETVI)", "value": 80, "unit": "%"}, {"measurement": "pre-emergence activity against TRZAS in % (crop plant damage)", "setting": "[2]", "value": 20, "unit": "%"}, {"measurement": "percent crop plant damage (wheat, post-emergence) at 80 g/ha", "setting": "[3]", "value": 10, "unit": "%"}]}
{"molecule": "Cc1cc2c(nc1-c1cccc(F)c1F)NCS2", "note": "[Example I-029, 5-(2,3-difluorophenyl)-6-methyl-2,3-dihydro[1,3]thiazolo[4,5-b]pyridine]", "values": [{"measurement": "pest or weed control at 320 g/ha", "setting": "Stellaria media (STEME); application rate 320 g/ha", "value": 90, "unit": "%"}, {"measurement": "pest or weed control at 1280 g/ha", "setting": "Veronica persica (VERPE); application rate 1280 g/ha", "value": 90, "unit": "%"}, {"measurement": "pest or weed control at 1280 g/ha", "setting": "[5]", "value": 90, "unit": "%"}, {"measurement": "pest or weed control at 1280 g/ha", "setting": "[1]; application rate 1280 g/ha", "value": 90, "unit": "%"}, {"measurement": "percent crop plant damage (wheat, post-emergence) at 80 g/ha", "setting": "[3]", "value": 10, "unit": "%"}]}
